The experiment deals with leukotrienes. The experiment in a line: leukotriene antagonist properties (test not specified; standard tests). To be noted: in words. Here is the method: Using this procedure, tracheal tissue strips are set up in groups of eight, four being used as time/vehicle controls and four for each test compound. All of the strips are exposed to 8×10^-9 M leukotriene E4 (LTE4) following the 50 minute equilibration period, and the response recorded. This concentration of LTE4 is that which produces a contraction equal to about 70-80% of the maximal effect of the agonist in this tissue. The LTE4 is washed out for 40-45 minutes and the procedure repeated twice to ensure that reproducible responses are being obtained with LTE4. Leukotriene C4 (LTC4) or D4 (LTD4), at a concentration of 8×10^-9 M, may be substituted for LTE4 in the same procedure.
Once tissue reproducibility has been established, test compounds are added to four baths following the 40 to 45 minute washout period. After a 10 minute incubation with test compound or vehicle, 8×10^-9 M LTE4, LTD4 or LTC4 is added and the response recorded. The percentage inhibition by the test compound or the percentage change in vehicle controls is calculated, for each tissue, according to the following equation: % inhibition=100 multiplied by (mg. tension increase of preceding response minus mg. tension increase in presence of compound) […]) divided by mg. tension increase of preceding response. The mean percentage change for vehicle controls and test compound are calculated and evaluated for significant differences by Students' t-test for unpaired data. Tissues exposed to test compounds were retested for responsiveness to LTE4, LTD4 or LTC4 following a 25 minute washout period. If tissue responsiveness was equal to responsiveness preceding exposure to the test compound additional studies were conducted. If responsiveness was not restored by the washing procedure, the tissues were discarded. The cyclooxygenase inhibitor, indomethacin, is present at 5×10^-6 M in all the determinations.
In general, compounds of formula I produce a significant increase in the time of onset of leukotriene initiated breathing changes following either oral, intravenous or intra peritoneal administration at a dose of 100 mg./kg., or much less, without any indication of untoward side-effects at several multiples of the minimum effective dose. By way of example, the compounds described in Examples 262, 158 and 168 produced significant increases in time required for onset of leukotriene D4 initiated disponoea following oral dosing at about 5 mg./kg., 43 mg./kg. and 50 mg./kg., respectively, 1-2 hours prior to leukotriene challenge.

With `COc1cc(C(=O)O)ccc1Cn1ccc2ccc(NC(=O)CC3CCCC3)cc21` [Example 114], the leukotriene antagonist properties result is recorded as “potent leukotriene antagonist properties”.

Turning to `COc1cc(C(=O)O)ccc1Cn1ccc2ccc(NC(=O)OC3CCC3)cc21` [Example 122], the leukotriene antagonist properties entry is given as “potent leukotriene antagonist properties”. To `CCCCOC(=O)Nc1ccc2ccn(Cc3ccc(-c4nnn[nH]4)cc3OC)c2c1` [Example 157, 6-(butoxycarbonyl)amino-1-(2-methoxy-4-[1(H)-tetrazol-5-yl]benzyl)indole] belongs “potent leukotriene antagonist properties”; to `COc1cc(-c2nnn[nH]2)ccc1Cn1ccc2ccc(NC(=O)OC3CCCC3)cc21` [Example 158, 6-(cyclopentyloxycarbonyl)amino-1-(2-methoxy-4-[1(H)tetrazol-5-yl]benzyl)indole], “potent leukotriene antagonist properties”; to `CCCCOC(=O)Nc1ccc2cnn(Cc3ccc(-c4nnn[nH]4)cc3OC)c2c1` [Example 161, 6-(butyloxycarbonyl)amino-1-(2-methoxy-4-[1(H)-tetrazol-5-yl]benzyl)indazole], “potent leukotriene antagonist properties”.

For `COc1cc(-c2nnn[nH]2)ccc1Cn1ncc2ccc(NC(=O)OC3CCCC3)cc21` [Example 162, 6-(cyclopentyloxycarbonyl)amino-1-(2-methoxy-4-[1(H)-tetrazole-5-yl]benzyl)indazole], the leukotriene antagonist properties result is recorded as “potent leukotriene antagonist properties”.

As for `CCCCC(CC)C(=O)Nc1ccc2cnn(Cc3ccc(-c4nnn[nH]4)cc3OC)c2c1` (stereo not drawn) [Example 163, 6-(2-ethylhexanamido)-1-(2-methoxy-4-[2(H)-tetrazol-5-yl]benzyl)indazole], the leukotriene antagonist properties result is “potent leukotriene antagonist properties”. As to `COc1cc(C(=O)O)ccc1Cn1ncc2ccc(NC(=O)OC3CCCC3)cc21` [Example 170], the leukotriene antagonist properties entry is given as “potent leukotriene antagonist properties”. To `COc1cc(C(=O)O)ccc1Cn1ccc2ccc(NC(=O)OC3CCCC3)cc21` [Example 176, 4-[6-(cyclopentyloxycarbonyl)aminoindol-1-ylmethyl]-3-methoxybenzoic acid] belongs “potent leukotriene antagonist properties”. For `COc1cc(C(=O)O)ccc1Cn1ccc2ccc(NC(=O)CC3CCCCC3)cc21` [Example 209], the leukotriene antagonist properties entry is on record as “potent leukotriene antagonist properties”.

On to `COc1cc(C(=O)O)ccc1Cn1cc(Cl)c2ccc(NC(=O)OC3CCCC3)cc21` [Example 221], for which the leukotriene antagonist properties entry is listed as “potent leukotriene antagonist properties”. Consider `COc1cc(C(=O)O)ccc1Cn1cc(C(C)=O)c2ccc(NC(=O)OC3CCCC3)cc21` [Example 222], for which the leukotriene antagonist properties result was “potent leukotriene antagonist properties”. On to `COc1cc(C(=O)O)ccc1Cn1cc(Cl)c2ccc(NC(=O)CC3CCCC3)cc21` [Example 224], for which the leukotriene antagonist properties result was “potent leukotriene antagonist properties”. To `CCCCC(CC)C(=O)Nc1ccc2c(C=CC(=O)OC)cn(Cc3ccc(C(=O)O)cc3OC)c2c1` (stereo not drawn) [Example 241, 4-(3-[2-methoxycarbonylvinyl]-6-[2-ethylhexanamido]indol-1-ylmethyl)-3-methoxybenzoic acid] belongs “potent leukotriene antagonist properties”; to `COc1cc(C(=O)NS(=O)(=O)c2ccccc2)ccc1Cn1ccc2ccc(NC(=O)OC3CCCC3)cc21` [Example 256, N-(4-[6-(cyclopentyloxycarbonyl)-aminoindol-1-ylmethyl]-3-methoxybenzoyl)benzenesulphonamide], “potent leukotriene antagonist properties”; to `CCC(C(=O)Nc1ccc2cnn(Cc3ccc(C(=O)NS(=O)(=O)c4ccccc4)cc3OC)c2c1)c1ccccc1` (stereo not drawn) [Example 261, N-(4-[6-(2-phenylbutanamido)indazol-1-ylmethyl]-3-methoxybenzoyl)benzenesulphonamide], “potent leukotriene antagonist properties”. In the case of `COc1cc(C(=O)NS(=O)(=O)c2ccccc2)ccc1Cn1ncc2ccc(NC(=O)OC3CCCC3)cc21` [Example 262] it was “potent leukotriene antagonist properties”.

For the compound `COc1cc(C(=O)NS(=O)(=O)c2ccccc2)ccc1Cn1ncc2ccc(NC(=O)CC3CCCC3)cc21` [Example 263, N-(4-[6-(2-cyclopentylacetamido)indazol-1-ylmethyl]-3-methoxybenzoyl)benzenesulphonamide], the leukotriene antagonist properties entry is “potent leukotriene antagonist properties”.

For the compound `COc1cc(C(=O)NS(=O)(=O)c2ccccc2C)ccc1Cn1ncc2ccc(NC(=O)CC3CCCC3)cc21` [Example 264], the leukotriene antagonist properties entry is on record as “potent leukotriene antagonist properties”. With `COc1cc(C(=O)NS(=O)(=O)c2ccccc2C)ccc1Cn1ccc2ccc(NC(=O)CC3CCCC3)cc21` [Example 265], the leukotriene antagonist properties entry was “potent leukotriene antagonist properties”. To `COc1cc(C(=O)NS(=O)(=O)c2ccccc2N)ccc1Cn1ccc2ccc(NC(=O)CC3CCCC3)cc21` [Example 266] belongs “potent leukotriene antagonist properties”; to `COc1cc(C(=O)NS(=O)(=O)c2ccccc2)ccc1Cn1cc(C(C)=O)c2ccc(NC(=O)OC3CCCC3)cc21` [Example 277, N-(4-[3-acetyl-6-(cyclopentyloxycarbonyl)aminoindol-1-ylmethyl]-3-methoxybenzoyl)benzenesulphonamide], “potent leukotriene antagonist properties”. In the case of `COc1cc(C(=O)NS(=O)(=O)c2ccccc2)ccc1Cn1ccc2ccc(NC(=O)C3CCCC3)cc21` [Example 278] it was “potent leukotriene antagonist properties”; in that of `COc1cc(C(=O)NS(=O)(=O)c2ccccc2)ccc1Cn1cc(Cl)c2ccc(NC(=O)OC3CCCC3)cc21` [Example 279], “potent leukotriene antagonist properties”; in that of `COc1cc(C(=O)NS(=O)(=O)c2ccccc2)ccc1Cn1ccc2ccc(NC(=O)CC3CCCC3)cc21` [Example 280, N-(4-[6-(2-cyclopentylacetamido)indol-1-ylmethyl]-3-methoxybenzoyl)benzenesulphonamide], “potent leukotriene antagonist properties”. Regarding `COc1cc(C(=O)NS(=O)(=O)c2ccccc2)ccc1CN1CCc2ccc(NC(=O)CC3CCCC3)cc21` [Example 284, N-(4-[6-(2-cyclopentylacetamido)indolin-1-ylmethyl]-3-methoxybenzoyl)benzenesulphonamide], the leukotriene antagonist properties result is “potent leukotriene antagonist properties”.

In the case of `CCCCOC(=O)Nc1ccc2cnn(Cc3ccc(C(=O)NS(=O)(=O)c4ccccc4)cc3OC)c2c1` [Example 294], the leukotriene antagonist properties result is “potent leukotriene antagonist properties”.
